# Patent publication US20100331348A1, “TROPANE DERIVATIVES USEFUL AS PESTICIDES” (SYNGENTA CROP PROTECTION, INC., priority 2007, published 2010)
# Where two headings read alike, the source gives them in different places.
# Experiments:
# [1] = system: Puccinia recondita f.sp. tritici; test: Puccinia recondita f.sp. tritici (wheat brown rust) leaf disk assay; format: in vivo; conditions: foliar, 216 h, preventive, nine days after inoculation, read-out: control of fungal infection, Puccinia recondita f.sp. tritici
# Plasmopara viticola = Plasmopara viticola (downy mildew of grapevine) leaf disk assay; format: in vivo; conditions: foliar, 168 h, preventive, seven days after inoculation, read-out: control of fungal infection, Plasmopara viticola
# [2] = system: Erysiphe graminis f.sp. tritici; test: Erysiphe graminis f.sp. tritici (wheat powdery mildew) leaf disk assay; format: in vivo; conditions: Blumeria graminis, foliar, 96 h, preventive, four days after inoculation, read-out: control of fungal infection, Erysiphe graminis fsp. tritici
# Aedes aegypti = Aedes aegypti (Yellow fever mosquito) larvae test; format: in vivo; conditions: 48 h
# Phytophthora infestans = test: whole plant or invertebrate; format: in vivo; conditions: foliar, 96 h, read-out: control of fungal infection, Phytophthora infestans
# Plutella xylostella = Plutella xylostella (Diamond back moth) artificial diet test; conditions: 120 h, read-out: control of Plutella xylostella
# Pyricularia oryzae = test: whole plant or invertebrate; format: in vivo; conditions: foliar, 96 h
# [3] = read-out: control of fungal infection, Pyricularia oryzae (at least 60% list)
SMILES,pest or weed control at 200 ppm [1] [%],pest or weed control at 200 ppm (Plasmopara viticola) [%],pest or weed control at 200 ppm [2] [%],also measured
Fc1cccc(OC2C[C@H]3CC[C@@H](C2)N3c2ncnc3sccc23)c1 (stereo partly shown) [Example 1.15],≥ 80,≥ 80,,
CSc1nc(C)cc(OC2C[C@H]3CC[C@@H](C2)N3c2ncnc3sccc23)n1 (stereo partly shown) [Example 1.77],,≥ 80,≥ 80,
CCCNC(=O)C=C1CC2CCC(C1)N2c1ncnc(CC)c1Cl [Example 3.5],≥ 80,≥ 80,,
O=C(C=C1CC2CCC(C1)N2c1ncnc2sccc12)Nc1ccc(Cl)cc1 [Example 3.17],,≥ 80,,
Cc1cc(OCC=C2CC3CCC(C2)N3c2ncnc3sccc23)nc(C)n1 [Example 3.18],≥ 80,≥ 80,,pest or weed control at 2 ppm (Aedes aegypti): ≥ 80%
CC(NC(=O)C=C1CC2CCC(C1)N2c1ncnc2sccc12)c1ccccc1 (stereo not shown) [Example 3.22],≥ 80,≥ 80,,
CCc1ncnc(N2C3CCC2CC(=NOCc2ccccc2C)C3)c1Cl [Example 5.10],≥ 80,,≥ 80,pest or weed control at 200 ppm (Phytophthora infestans): ≥ 80%; pest or weed control at 200 ppm (Plutella xylostella): ≥ 80%
CCc1ncnc(N2C3CCC2CC(=NOCc2nc(C)cc(Cl)n2)C3)c1Cl [Example 5.13],,≥ 80,≥ 80,
CCc1ncnc(N2C3CCC2CC(=NOCc2ccccc2OC)C3)c1Cl [Example 5.23],≥ 80,≥ 80,≥ 80,
CCc1ncnc(N2C3CCC2CC(=NOc2nc(Cl)ccc2C(F)(F)F)C3)c1Cl [Example 5.117],,≥ 80,,
c1nc(N2C3CCC2CC(=NOCCC2CCCCC2)C3)c2ccsc2n1 [Example 5.136],,≥ 80,,
Clc1cc(ON=C2CC3CCC(C2)N3c2ncnc3sccc23)nc(Cl)n1 [Example 5.154],,≥ 80,,
Fc1ccc(CON=C2CC3CCC(C2)N3c2ncnc3sccc23)cc1F [Example 5.185],≥ 80,,≥ 80,"pest or weed control at 2 ppm (Aedes aegypti): ≥ 80%; pest or weed control at 200 ppm (Pyricularia oryzae; [3]): ≥ 60%; pest or weed control at 200 ppm (Pyricularia oryzae; read-out: control of fungal infection, Pyricularia oryzae (at least 80% list)): ≥ 80%; pest or weed control at 200 ppm (Phytophthora infestans): ≥ 80%; pest or weed control at 200 ppm (Plutella xylostella): ≥ 80%"
N#Cc1ccccc1CON=C1CC2CCC(C1)N2c1ncnc2sccc12 [Example 5.191],≥ 80,≥ 80,≥ 80,pest or weed control at 2 ppm (Aedes aegypti): ≥ 80%
c1ccc2nc(CON=C3CC4CCC(C3)N4c3ncnc4sccc34)ccc2c1 [Example 5.193],≥ 80,≥ 80,≥ 80,pest or weed control at 2 ppm (Aedes aegypti): ≥ 80%
Fc1cc(F)c(F)c(CON=C2CC3CCC(C2)N3c2ncnc3sccc23)c1 [Example 5.227],≥ 80,,≥ 80,pest or weed control at 2 ppm (Aedes aegypti): ≥ 80%; pest or weed control at 200 ppm (Pyricularia oryzae; [3]): ≥ 60%; pest or weed control at 200 ppm (Phytophthora infestans): ≥ 80%
Fc1cc(CON=C2CC3CCC(C2)N3c2ncnc3sccc23)cc(C(F)(F)F)c1 [Example 5.231],,≥ 80,≥ 80,pest or weed control at 200 ppm (Pyricularia oryzae; [3]): ≥ 60%
COc1cc(ON=C2CC3CCC(C2)N3c2ncnc3sccc23)nc(SC)n1 [Example 5.246],≥ 80,≥ 80,,
Cc1nn(C)c2nccc(N3C4CCC3CC(=NOCc3ccccc3)C4)c12 [Example 5.253],,≥ 80,,
CCOC(=O)c1ccc(CON=C2CC3CCC(C2)N3c2ncnc3sccc23)o1 [Example 5.259],≥ 80,≥ 80,≥ 80,
O=C(CC1CC2CCC(C1)N2c1ncnc2sccc12)Nc1ccc(Cl)cc1 (stereo not shown) [Example 7.12],≥ 80,≥ 80,,
